{
  "source": "paper PMC10879502",
  "about": "“Linking ATP and allosteric sites to achieve superadditive binding with bivalent EGFR kinase inhibitors” (Communications Chemistry, 2024)",
  "experiment_in_all_cases": "KINOMEscan",
  "assay_type_in_all_cases": "binding",
  "conditions_in_all_cases": "1 μM",
  "key": {"[1]": {"target": "T1, ABL1(H396P)-nonphosphorylated (Homo sapiens, UniProt P00519, H396P)", "T1 construct": "purchased Eurofins DiscoverX Corporation"}, "AMPK-alpha2": {"target": "AMPK-alpha2 (Homo sapiens, UniProt P54646)"}, "ASK2": {"target": "ASK2 (Homo sapiens, UniProt O95382)"}, "AXL": {"target": "AXL (Homo sapiens, UniProt P30530)"}, "BRAF(V600E)": {"target": "T2, BRAF(V600E) (Homo sapiens, UniProt P15056, V600E)", "T2 construct": "purchased Eurofins DiscoverX Corporation (KINOMEscan)"}, "BRK": {"target": "T3, BRK (Homo sapiens, UniProt Q13882)", "T3 construct": "purchased Eurofins DiscoverX Corporation (KINOMEscan)"}, "CDK11": {"target": "CDK11 (Homo sapiens, UniProt Q9BWU1)"}, "CDK3": {"target": "CDK3 (Homo sapiens, UniProt Q00526)"}, "CLK4": {"target": "CLK4 (Homo sapiens, UniProt Q9HAZ1)"}, "CSF1R-autoinhibited": {"target": "CSF1R-autoinhibited (Homo sapiens, UniProt P07333)", "sequence (P07333 539-972 limits assumed)": "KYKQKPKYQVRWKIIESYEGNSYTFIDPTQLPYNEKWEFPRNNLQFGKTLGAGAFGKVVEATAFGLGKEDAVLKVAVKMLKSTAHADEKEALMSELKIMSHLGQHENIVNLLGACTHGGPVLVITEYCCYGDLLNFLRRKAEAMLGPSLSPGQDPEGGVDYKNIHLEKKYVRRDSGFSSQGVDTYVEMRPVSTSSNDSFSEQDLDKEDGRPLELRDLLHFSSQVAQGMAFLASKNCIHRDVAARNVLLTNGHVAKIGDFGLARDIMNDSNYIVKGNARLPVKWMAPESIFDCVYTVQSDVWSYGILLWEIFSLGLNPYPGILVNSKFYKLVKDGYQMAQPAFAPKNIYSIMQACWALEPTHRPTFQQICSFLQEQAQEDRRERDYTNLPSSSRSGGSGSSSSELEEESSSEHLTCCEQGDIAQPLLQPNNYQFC"}, "CSNK1A1": {"target": "CSNK1A1 (Homo sapiens, UniProt P48729)"}, "DRAK2": {"target": "T4, DRAK2 (Homo sapiens, UniProt O94768)", "T4 construct": "purchased Eurofins DiscoverX Corporation"}, "DYRK1B": {"target": "T5, DYRK1B (Homo sapiens, UniProt Q9Y463)", "T5 construct": "purchased Eurofins DiscoverX Corporation"}, "EPHB1": {"target": "EPHB1 (Homo sapiens, UniProt P54762)", "sequence (P54762 18-984)": "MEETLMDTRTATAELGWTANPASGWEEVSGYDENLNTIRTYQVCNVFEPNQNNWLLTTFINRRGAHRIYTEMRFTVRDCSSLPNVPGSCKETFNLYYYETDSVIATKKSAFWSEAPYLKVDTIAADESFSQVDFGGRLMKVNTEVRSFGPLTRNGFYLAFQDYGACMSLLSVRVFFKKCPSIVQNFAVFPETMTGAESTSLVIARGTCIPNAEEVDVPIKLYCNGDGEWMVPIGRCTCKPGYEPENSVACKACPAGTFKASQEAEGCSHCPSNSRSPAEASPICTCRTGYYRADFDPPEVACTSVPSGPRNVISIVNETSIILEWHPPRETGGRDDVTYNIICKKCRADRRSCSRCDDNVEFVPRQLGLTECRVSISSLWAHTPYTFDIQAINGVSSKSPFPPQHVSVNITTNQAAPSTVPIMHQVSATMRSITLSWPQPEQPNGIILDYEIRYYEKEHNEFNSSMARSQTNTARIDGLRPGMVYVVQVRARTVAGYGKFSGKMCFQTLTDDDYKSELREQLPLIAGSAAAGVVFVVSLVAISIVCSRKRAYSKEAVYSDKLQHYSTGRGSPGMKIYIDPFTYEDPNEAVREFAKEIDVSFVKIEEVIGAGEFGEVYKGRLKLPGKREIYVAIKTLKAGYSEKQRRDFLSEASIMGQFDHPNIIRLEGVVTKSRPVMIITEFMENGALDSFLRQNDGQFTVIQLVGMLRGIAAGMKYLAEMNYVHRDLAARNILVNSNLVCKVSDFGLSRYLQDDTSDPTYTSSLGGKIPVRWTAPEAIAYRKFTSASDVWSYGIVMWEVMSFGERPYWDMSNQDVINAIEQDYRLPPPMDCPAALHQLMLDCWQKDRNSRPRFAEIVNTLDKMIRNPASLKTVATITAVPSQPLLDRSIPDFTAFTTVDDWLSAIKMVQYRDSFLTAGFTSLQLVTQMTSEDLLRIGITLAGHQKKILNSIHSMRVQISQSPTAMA"}, "EPHB3": {"target": "EPHB3 (Homo sapiens, UniProt P54753)"}, "EPHB4": {"target": "EPHB4 (Homo sapiens, UniProt P54760)"}, "GRK7": {"target": "T6, GRK7 (Homo sapiens, UniProt Q8WTQ7)", "T6 construct": "purchased Eurofins DiscoverX Corporation"}, "HIPK1": {"target": "T7, HIPK1 (Homo sapiens, UniProt Q86Z02)", "T7 construct": "purchased Eurofins DiscoverX Corporation"}, "ICK": {"target": "T8, ICK (Homo sapiens, UniProt Q9UPZ9)", "T8 construct": "purchased Eurofins DiscoverX (KINOMEscan)"}, "MAP3K2": {"target": "T9, MAP3K2 (Homo sapiens, UniProt Q9Y2U5)", "T9 construct": "purchased Eurofins DiscoverX Corporation"}, "MAP4K2": {"target": "T10, MAP4K2 (Homo sapiens, UniProt Q12851)", "T10 construct": "purchased Eurofins DiscoverX Corporation"}, "MERTK": {"target": "T11, MERTK (Homo sapiens, UniProt Q12866)", "T11 construct": "purchased Eurofins DiscoverX Corporation"}, "MET(M1250T)": {"target": "T12, MET(M1250T) (Homo sapiens, UniProt P08581, M1250T)", "T12 construct": "purchased Eurofins DiscoverX Corporation"}, "MLK3": {"target": "T13, MLK3 (Homo sapiens, UniProt Q16584)", "T13 construct": "purchased Eurofins DiscoverX Corporation"}, "MTOR": {"target": "T14, MTOR (Homo sapiens, UniProt P42345)", "T14 construct": "purchased Eurofins DiscoverX Corporation"}, "NEK1": {"target": "T15, NEK1 (Homo sapiens, UniProt Q96PY6)", "T15 construct": "purchased Eurofins DiscoverX Corporation"}, "NEK3": {"target": "T16, NEK3 (Homo sapiens, UniProt P51956)", "T16 construct": "purchased Eurofins DiscoverX Corporation", "T16 sequence (P51956 whole entry)": "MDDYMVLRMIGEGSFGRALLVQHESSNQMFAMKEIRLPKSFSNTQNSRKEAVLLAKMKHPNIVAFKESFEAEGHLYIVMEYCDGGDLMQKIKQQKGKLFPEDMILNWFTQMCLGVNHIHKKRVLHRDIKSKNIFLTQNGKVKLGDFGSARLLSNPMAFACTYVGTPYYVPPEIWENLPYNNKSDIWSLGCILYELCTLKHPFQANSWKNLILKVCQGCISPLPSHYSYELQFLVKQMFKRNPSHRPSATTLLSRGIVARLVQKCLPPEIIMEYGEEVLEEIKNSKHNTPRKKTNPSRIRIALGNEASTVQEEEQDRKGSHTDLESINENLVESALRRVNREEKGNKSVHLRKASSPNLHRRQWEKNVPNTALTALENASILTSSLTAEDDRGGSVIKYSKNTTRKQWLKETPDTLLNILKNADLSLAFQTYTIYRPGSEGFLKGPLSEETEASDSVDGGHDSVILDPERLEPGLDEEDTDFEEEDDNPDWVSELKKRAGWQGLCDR"}, "NIK": {"target": "NIK (Homo sapiens, UniProt Q99558)"}, "PDPK1": {"target": "PDPK1 (Homo sapiens, UniProt O15530)"}, "PFTK1": {"target": "PFTK1 (Homo sapiens, UniProt O94921)"}, "PIP5K2C": {"target": "PIP5K2C (Homo sapiens, UniProt Q8TBX8)"}, "PKMYT1": {"target": "PKMYT1 (Homo sapiens, UniProt Q99640)"}, "PKN2": {"target": "PKN2 (Homo sapiens, UniProt Q16513)", "sequence (Q16513 whole entry)": "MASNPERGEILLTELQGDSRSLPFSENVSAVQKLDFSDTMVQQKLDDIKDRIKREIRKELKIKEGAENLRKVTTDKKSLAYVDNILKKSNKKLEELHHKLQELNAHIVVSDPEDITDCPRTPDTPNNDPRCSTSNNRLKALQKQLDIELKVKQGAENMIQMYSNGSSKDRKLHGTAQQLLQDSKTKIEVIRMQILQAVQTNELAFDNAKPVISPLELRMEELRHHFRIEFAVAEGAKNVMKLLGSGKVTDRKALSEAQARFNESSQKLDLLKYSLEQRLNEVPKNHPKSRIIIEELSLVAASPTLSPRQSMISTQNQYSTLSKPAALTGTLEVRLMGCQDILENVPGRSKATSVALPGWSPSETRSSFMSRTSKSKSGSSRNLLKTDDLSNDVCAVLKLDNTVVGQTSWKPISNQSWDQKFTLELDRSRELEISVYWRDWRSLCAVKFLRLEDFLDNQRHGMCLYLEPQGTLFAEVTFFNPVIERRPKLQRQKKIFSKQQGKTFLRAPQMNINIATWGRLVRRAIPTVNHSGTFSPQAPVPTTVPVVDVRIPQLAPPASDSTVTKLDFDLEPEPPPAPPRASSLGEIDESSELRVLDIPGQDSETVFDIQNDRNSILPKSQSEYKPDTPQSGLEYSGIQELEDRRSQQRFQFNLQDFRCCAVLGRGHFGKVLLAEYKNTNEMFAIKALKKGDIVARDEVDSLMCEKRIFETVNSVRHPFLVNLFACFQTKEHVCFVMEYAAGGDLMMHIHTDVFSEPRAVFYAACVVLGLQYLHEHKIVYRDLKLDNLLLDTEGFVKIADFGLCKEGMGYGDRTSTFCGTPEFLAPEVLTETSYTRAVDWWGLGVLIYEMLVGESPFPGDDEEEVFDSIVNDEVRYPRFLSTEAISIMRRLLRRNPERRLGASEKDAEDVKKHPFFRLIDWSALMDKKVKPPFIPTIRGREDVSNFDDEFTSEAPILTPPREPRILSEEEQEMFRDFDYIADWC"}, "PRKG1": {"target": "PRKG1 (Homo sapiens, UniProt Q13976)"}, "RIPK1": {"target": "RIPK1 (Homo sapiens, UniProt Q13546)"}, "[2]": {"target": "RPS6KA4(Kin.Dom.2-C-terminal) (Homo sapiens, UniProt O75676)"}, "[3]": {"target": "RSK2(Kin.Dom.1-N-terminal) (Homo sapiens, UniProt P51812)", "sequence (P51812 68-327 limits assumed)": "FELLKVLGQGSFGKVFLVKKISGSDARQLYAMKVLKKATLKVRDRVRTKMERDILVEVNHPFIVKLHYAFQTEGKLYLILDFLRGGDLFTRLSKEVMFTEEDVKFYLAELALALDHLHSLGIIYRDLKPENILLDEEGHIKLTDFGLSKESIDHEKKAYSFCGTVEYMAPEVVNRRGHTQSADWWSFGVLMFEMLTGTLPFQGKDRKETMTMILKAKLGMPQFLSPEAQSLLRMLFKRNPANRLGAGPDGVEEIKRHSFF"}, "SIK": {"target": "SIK (Homo sapiens, UniProt P57059)"}, "SIK2": {"target": "SIK2 (Homo sapiens, UniProt Q9H0K1)"}, "TAK1": {"target": "T17, TAK1 (Homo sapiens, UniProt O43318)", "T17 construct": "purchased Eurofins DiscoverX Corporation"}, "TAOK2": {"target": "T18, TAOK2 (Homo sapiens, UniProt Q9UL54)", "T18 construct": "purchased Eurofins DiscoverX Corporation"}, "TGFBR1": {"target": "T19, TGFBR1 (Homo sapiens, UniProt P36897)", "T19 construct": "purchased Eurofins DiscoverX Corporation"}, "WNK3": {"target": "WNK3 (Homo sapiens, UniProt Q9BYP7)", "sequence (Q9BYP7 whole entry)": "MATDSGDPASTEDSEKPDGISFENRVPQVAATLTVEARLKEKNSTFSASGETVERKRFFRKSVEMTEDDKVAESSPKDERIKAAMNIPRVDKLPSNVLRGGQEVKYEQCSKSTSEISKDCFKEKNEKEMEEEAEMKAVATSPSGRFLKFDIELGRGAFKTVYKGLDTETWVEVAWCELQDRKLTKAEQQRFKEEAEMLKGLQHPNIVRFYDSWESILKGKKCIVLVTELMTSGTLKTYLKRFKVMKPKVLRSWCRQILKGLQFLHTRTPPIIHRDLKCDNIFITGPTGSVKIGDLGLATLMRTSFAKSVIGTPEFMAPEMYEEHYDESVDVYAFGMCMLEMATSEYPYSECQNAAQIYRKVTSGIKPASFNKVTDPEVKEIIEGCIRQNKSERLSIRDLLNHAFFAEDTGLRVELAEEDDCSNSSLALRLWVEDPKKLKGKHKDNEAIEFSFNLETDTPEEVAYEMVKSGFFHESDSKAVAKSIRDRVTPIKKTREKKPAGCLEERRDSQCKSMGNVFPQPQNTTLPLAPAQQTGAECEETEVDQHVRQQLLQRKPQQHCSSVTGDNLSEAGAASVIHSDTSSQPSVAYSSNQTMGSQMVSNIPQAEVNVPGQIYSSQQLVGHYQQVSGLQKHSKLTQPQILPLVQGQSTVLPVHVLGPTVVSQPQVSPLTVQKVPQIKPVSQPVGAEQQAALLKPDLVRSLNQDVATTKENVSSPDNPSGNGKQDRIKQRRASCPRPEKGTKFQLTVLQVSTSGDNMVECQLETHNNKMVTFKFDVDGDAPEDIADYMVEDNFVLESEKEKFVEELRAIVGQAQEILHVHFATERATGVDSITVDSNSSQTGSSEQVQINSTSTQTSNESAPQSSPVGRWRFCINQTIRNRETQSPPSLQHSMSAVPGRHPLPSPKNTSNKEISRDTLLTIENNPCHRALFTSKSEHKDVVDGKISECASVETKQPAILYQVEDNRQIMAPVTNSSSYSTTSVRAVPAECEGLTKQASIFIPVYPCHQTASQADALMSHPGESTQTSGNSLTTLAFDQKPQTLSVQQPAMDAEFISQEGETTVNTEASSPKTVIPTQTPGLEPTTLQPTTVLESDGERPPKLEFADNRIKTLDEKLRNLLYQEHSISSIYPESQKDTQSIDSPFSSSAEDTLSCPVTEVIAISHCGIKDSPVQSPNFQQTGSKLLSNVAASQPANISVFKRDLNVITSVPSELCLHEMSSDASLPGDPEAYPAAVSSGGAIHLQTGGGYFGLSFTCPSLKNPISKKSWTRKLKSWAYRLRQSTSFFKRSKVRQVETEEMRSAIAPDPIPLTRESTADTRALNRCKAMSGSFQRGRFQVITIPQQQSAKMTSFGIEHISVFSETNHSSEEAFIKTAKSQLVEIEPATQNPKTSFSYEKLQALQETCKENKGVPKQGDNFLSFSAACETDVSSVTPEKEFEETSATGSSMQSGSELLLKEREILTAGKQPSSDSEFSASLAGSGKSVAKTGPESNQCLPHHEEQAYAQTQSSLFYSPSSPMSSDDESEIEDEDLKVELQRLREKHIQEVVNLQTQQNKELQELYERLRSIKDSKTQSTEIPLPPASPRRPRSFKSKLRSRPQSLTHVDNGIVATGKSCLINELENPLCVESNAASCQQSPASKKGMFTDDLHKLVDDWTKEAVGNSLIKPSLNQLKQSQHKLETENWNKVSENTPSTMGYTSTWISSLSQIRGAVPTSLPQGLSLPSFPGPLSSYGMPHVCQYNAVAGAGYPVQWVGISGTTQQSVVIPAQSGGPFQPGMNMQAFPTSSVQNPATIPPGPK"}},
  "data": [
    {"compound": "C=CC(=O)Nc1ccc(OC)c(Nc2cc(-c3[nH]c(CC)nc3-c3cccc(NC(=O)c4cccc5c4NC(=O)c4ccccc4N5)c3)ccn2)c1", "note": "[Compound 4]", "values": [
      {"measurement": "POC", "setting": "[1]", "value": "97% of control"},
      {"measurement": "POC", "setting": "AMPK-alpha2", "value": "56% of control"},
      {"measurement": "POC", "setting": "ASK2", "value": "100% of control"},
      {"measurement": "POC", "setting": "AXL", "value": "98% of control"},
      {"measurement": "POC", "setting": "BRAF(V600E)", "value": "100% of control"},
      {"measurement": "POC", "setting": "BRK", "value": "96% of control"},
      {"measurement": "POC", "setting": "CDK11", "value": "100% of control"},
      {"measurement": "POC", "setting": "CDK3", "value": "100% of control"},
      {"measurement": "POC", "setting": "CLK4", "value": "100% of control"},
      {"measurement": "POC", "setting": "CSF1R-autoinhibited", "value": "69% of control"},
      {"measurement": "POC", "setting": "CSNK1A1", "value": "56% of control"},
      {"measurement": "POC", "setting": "DRAK2", "value": "94% of control"},
      {"measurement": "POC", "setting": "DYRK1B", "value": "88% of control"},
      {"measurement": "POC", "setting": "EPHB1", "value": "92% of control"},
      {"measurement": "POC", "setting": "EPHB3", "value": "100% of control"},
      {"measurement": "POC", "setting": "EPHB4", "value": "100% of control"},
      {"measurement": "POC", "setting": "GRK7", "value": "99% of control"},
      {"measurement": "POC", "setting": "HIPK1", "value": "51% of control"},
      {"measurement": "POC", "setting": "ICK", "value": "100% of control"},
      {"measurement": "POC", "setting": "MAP3K2", "value": "100% of control"},
      {"measurement": "POC", "setting": "MAP4K2", "value": "36% of control"},
      {"measurement": "POC", "setting": "MERTK", "value": "83% of control"},
      {"measurement": "POC", "setting": "MET(M1250T)", "value": "89% of control"},
      {"measurement": "POC", "setting": "MLK3", "value": "97% of control"},
      {"measurement": "POC", "setting": "MTOR", "value": "100% of control"},
      {"measurement": "POC", "setting": "NEK1", "value": "90% of control"},
      {"measurement": "POC", "setting": "NEK3", "value": "100% of control"},
      {"measurement": "POC", "setting": "NIK", "value": "100% of control"},
      {"measurement": "POC", "setting": "PDPK1", "value": "84% of control"},
      {"measurement": "POC", "setting": "PFTK1", "value": "90% of control"},
      {"measurement": "POC", "setting": "PIP5K2C", "value": "66% of control"},
      {"measurement": "POC", "setting": "PKMYT1", "value": "99% of control"},
      {"measurement": "POC", "setting": "PKN2", "value": "100% of control"},
      {"measurement": "POC", "setting": "PRKG1", "value": "100% of control"},
      {"measurement": "POC", "setting": "RIPK1", "value": "100% of control"},
      {"measurement": "POC", "setting": "[2]", "value": "75% of control"},
      {"measurement": "POC", "setting": "[3]", "value": "100% of control"},
      {"measurement": "POC", "setting": "SIK", "value": "100% of control"},
      {"measurement": "POC", "setting": "SIK2", "value": "100% of control"},
      {"measurement": "POC", "setting": "TAK1", "value": "95% of control"},
      {"measurement": "POC", "setting": "TAOK2", "value": "100% of control"},
      {"measurement": "POC", "setting": "TGFBR1", "value": "75% of control"},
      {"measurement": "POC", "setting": "WNK3", "value": "78% of control"}
    ]}
  ]
}
